Laboratory results taken from the NIST ThermoML archive (doi:10.1021/acs.jced.7b00176).

Test: xn = mol fraction of the nth substance listed
Conditions: Liquid, Vibrating tube method

COCCOCCOC [2,5,8-trioxanonane] + CCCCO
Conditions	mass density [kg/m3]
323.26 K, 30000 kPa, x2 = 0.7308	855.36
323.27 K, 100 kPa, x2 = 0.3116	884.02
323.27 K, 5000 kPa, x2 = 0.3116	888.39
323.27 K, 40000 kPa, x2 = 0.7308	862.01
323.27 K, 60000 kPa, x2 = 0.7308	874.24
323.27 K, 80000 kPa, x2 = 0.7308	885.1
323.27 K, 100000 kPa, x2 = 0.7308	894.94
323.28 K, 1000 kPa, x2 = 0.3116	884.84
323.28 K, 10000 kPa, x2 = 0.3116	892.57
323.28 K, 20000 kPa, x2 = 0.3116	900.61
323.28 K, 30000 kPa, x2 = 0.3116	907.85
323.28 K, 40000 kPa, x2 = 0.3116	914.76
323.28 K, 80000 kPa, x2 = 0.3116	938.32
323.29 K, 100 kPa, x2 = 0.8787	809.04
323.29 K, 1000 kPa, x2 = 0.8787	809.88
323.29 K, 5000 kPa, x2 = 0.8787	813.32
323.29 K, 10000 kPa, x2 = 0.8787	817.49
323.29 K, 20000 kPa, x2 = 0.8787	825.25
323.29 K, 30000 kPa, x2 = 0.8787	832.38
323.29 K, 40000 kPa, x2 = 0.8787	838.96
323.29 K, 60000 kPa, x2 = 0.3116	927.16
323.29 K, 60000 kPa, x2 = 0.8787	850.97
323.29 K, 80000 kPa, x2 = 0.8787	861.63
323.29 K, 100000 kPa, x2 = 0.3116	948.49
323.29 K, 100010 kPa, x2 = 0.8787	871.34
342.49 K, 100 kPa, x2 = 0	894.03
342.49 K, 1000 kPa, x2 = 0	894.98
342.49 K, 5000 kPa, x2 = 0	898.96
342.5 K, 10000 kPa, x2 = 0	903.66
342.5 K, 20000 kPa, x2 = 0	912.57
342.51 K, 30000 kPa, x2 = 0	920.68
342.51 K, 40000 kPa, x2 = 0	928.18
342.51 K, 60000 kPa, x2 = 0	941.77
342.51 K, 80000 kPa, x2 = 0	953.82
342.52 K, 100000 kPa, x2 = 0	964.68
342.99 K, 100 kPa, x2 = 0.5469	838.63
343 K, 1000 kPa, x2 = 0.5469	839.58
343 K, 5000 kPa, x2 = 0.5469	843.51
343 K, 10000 kPa, x2 = 0.5469	848.2
343.01 K, 20000 kPa, x2 = 0.5469	856.98
343.01 K, 30000 kPa, x2 = 0.5469	864.93
343.01 K, 40000 kPa, x2 = 0.5469	872.29
343.01 K, 60000 kPa, x2 = 0.5469	885.57
343.01 K, 80000 kPa, x2 = 0.5469	897.36
343.02 K, 100 kPa, x2 = 0.7308	814.17
343.02 K, 100000 kPa, x2 = 0.5469	907.94
343.03 K, 1000 kPa, x2 = 0.7308	815.11
343.03 K, 5000 kPa, x2 = 0.7308	819.06
343.03 K, 80000 kPa, x2 = 0.8787	849.39
343.04 K, 100 kPa, x2 = 0.3116	864.74
343.04 K, 100 kPa, x2 = 0.8787	792.02
343.04 K, 1000 kPa, x2 = 0.3116	865.7
343.04 K, 1000 kPa, x2 = 0.8787	792.98
343.04 K, 5000 kPa, x2 = 0.8787	796.88
343.04 K, 10000 kPa, x2 = 0.7308	823.7
343.04 K, 10000 kPa, x2 = 0.8787	801.5
343.04 K, 20000 kPa, x2 = 0.7308	832.39
343.04 K, 20000 kPa, x2 = 0.8787	810.09
343.04 K, 30000 kPa, x2 = 0.7308	840.28
343.04 K, 30000 kPa, x2 = 0.8787	817.86
343.04 K, 40000 kPa, x2 = 0.7308	847.55
343.04 K, 40000 kPa, x2 = 0.8787	825.03
343.04 K, 60000 kPa, x2 = 0.7308	860.64
343.04 K, 60000 kPa, x2 = 0.8787	837.96
343.04 K, 80000 kPa, x2 = 0.7308	872.22
343.04 K, 100000 kPa, x2 = 0.7308	882.62
343.04 K, 100000 kPa, x2 = 0.8787	859.63
343.05 K, 5000 kPa, x2 = 0.3116	869.66
343.05 K, 10000 kPa, x2 = 0.3116	874.4
343.06 K, 20000 kPa, x2 = 0.3116	883.26
343.06 K, 30000 kPa, x2 = 0.3116	891.31
343.06 K, 40000 kPa, x2 = 0.3116	898.79
343.06 K, 60000 kPa, x2 = 0.3116	912.24
343.07 K, 80000 kPa, x2 = 0.3116	924.13
343.08 K, 100000 kPa, x2 = 0.3116	934.89
362.51 K, 100 kPa, x2 = 0	873.45
362.51 K, 1000 kPa, x2 = 0	874.46
362.51 K, 5000 kPa, x2 = 0	879.02
362.52 K, 10000 kPa, x2 = 0	884.41
362.52 K, 20000 kPa, x2 = 0	894.33
362.52 K, 30000 kPa, x2 = 0	903.29
362.52 K, 40000 kPa, x2 = 0	911.53
362.53 K, 60000 kPa, x2 = 0	926.3
362.53 K, 80000 kPa, x2 = 0	939.26
362.53 K, 100000 kPa, x2 = 0	950.89
362.67 K, 100 kPa, x2 = 0.5469	819.52
362.68 K, 1000 kPa, x2 = 0.5469	820.52
362.68 K, 5000 kPa, x2 = 0.5469	825.03
362.68 K, 10000 kPa, x2 = 0.5469	830.34
362.69 K, 100 kPa, x2 = 0.8787	774.25
362.69 K, 1000 kPa, x2 = 0.8787	775.26
362.69 K, 5000 kPa, x2 = 0.8787	779.7
362.69 K, 20000 kPa, x2 = 0.5469	840.09
362.69 K, 30000 kPa, x2 = 0.5469	848.85
362.69 K, 40000 kPa, x2 = 0.5469	856.9
362.69 K, 60000 kPa, x2 = 0.5469	871.26
362.69 K, 80000 kPa, x2 = 0.5469	883.92
362.7 K, 5000 kPa, x2 = 0.3116	850.69
362.7 K, 10000 kPa, x2 = 0.8787	784.88
362.7 K, 20000 kPa, x2 = 0.8787	794.41
362.7 K, 30000 kPa, x2 = 0.8787	802.93
362.7 K, 40000 kPa, x2 = 0.8787	810.75
362.7 K, 60000 kPa, x2 = 0.8787	824.68
362.7 K, 100000 kPa, x2 = 0.5469	895.2
362.71 K, 100 kPa, x2 = 0.3116	845.12
362.71 K, 100 kPa, x2 = 0.7308	795.72
362.71 K, 1000 kPa, x2 = 0.3116	846.14
362.71 K, 10000 kPa, x2 = 0.3116	856.03
362.71 K, 20000 kPa, x2 = 0.3116	865.91
362.71 K, 30000 kPa, x2 = 0.3116	874.79
362.71 K, 80000 kPa, x2 = 0.8787	836.92
362.71 K, 100000 kPa, x2 = 0.8787	847.79
362.72 K, 1000 kPa, x2 = 0.7308	796.73
362.72 K, 5000 kPa, x2 = 0.7308	801.19
362.72 K, 10000 kPa, x2 = 0.7308	806.44
362.72 K, 20000 kPa, x2 = 0.7308	816.08
362.72 K, 30000 kPa, x2 = 0.7308	824.74
362.72 K, 40000 kPa, x2 = 0.3116	882.96
362.72 K, 40000 kPa, x2 = 0.7308	832.66
362.72 K, 60000 kPa, x2 = 0.3116	897.55
362.72 K, 80000 kPa, x2 = 0.3116	910.38
362.72 K, 100000 kPa, x2 = 0.3116	921.84
362.73 K, 60000 kPa, x2 = 0.7308	846.83
362.73 K, 80000 kPa, x2 = 0.7308	859.23
362.73 K, 100000 kPa, x2 = 0.7308	870.28
